ChEMBL document CHEMBL1201862, “PubChem BioAssay data set” (2004)
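Dose response: 5 concentrations. Exposure: 48 h. Format: 96-well plates. Endpoint: linear interpolation; highest concentration if not reached. GI50: concentration for 50% inhibition of growth.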 The source made the active and inactive calls. Rule as the data show it: active = GI50 up to about 1.1 µM and inactive = higher.

Experiments:
Test in all cases: NCI tumour cell line growth inhibition, 48 h
[1] = system: 786-0
[2] = system: ACHN
[3] = system: COLO 205
[4] = system: HL-60
[5] = system: K562
[6] = system: M14
[7] = system: NCI-H522
[8] = system: OVCAR-4
[9] = system: SNB-19
[10] = system: SR
[11] = system: UACC-62
[12] = system: UO-31
[13] = system: HOP-92
[14] = system: NCI-H226
[15] = system: SK-OV-3
[16] = system: UACC-257
[17] = system: DU-145
[18] = system: T47D

| Structure (SMILES) | GI50 [1] | GI50 [2] | GI50 [3] | GI50 [4] | GI50 [5] | GI50 [6] | GI50 [7] | GI50 [8] | GI50 [9] | GI50 [10] | GI50 [11] | GI50 [12] | GI50 [13] | GI50 [14] | GI50 [15] | GI50 [16] | GI50 [17] | GI50 [18] |
| --- | --- | --- | --- | --- | --- | --- | --- | --- | --- | --- | --- | --- | --- | --- | --- | --- | --- | --- |
| O=C1CCC(=O)N1Cc1ccccc1/N=[N+](\[O-])c1ccccc1CN1C(=O)CCC1=O | > 100 µM (inactive) | > 100 µM (inactive) | > 100 µM (inactive) | > 100 µM (inactive) | > 100 µM (inactive) | > 100 µM (inactive) | > 100 µM (inactive) | > 100 µM (inactive) | > 100 µM (inactive) | > 100 µM (inactive) | > 100 µM (inactive) | > 100 µM (inactive) | – | – | – | – | – | – |
| NCCOCCOCC(=O)O | > 100 µM (inactive) | > 100 µM (inactive) | – | – | > 100 µM (inactive) | – | > 100 µM (inactive) | > 100 µM (inactive) | > 100 µM (inactive) | > 100 µM (inactive) | > 100 µM (inactive) | > 100 µM (inactive) | > 100 µM (inactive) | > 100 µM (inactive) | > 100 µM (inactive) | > 100 µM (inactive) | – | – |
| O=C(CO)CC(=O)C(=O)Nc1ccccc1 | > 100 µM (inactive) | > 100 µM (inactive) | > 100 µM (inactive) | > 100 µM (inactive) | > 100 µM (inactive) | > 100 µM (inactive) | – | > 100 µM (inactive) | > 100 µM (inactive) | > 100 µM (inactive) | > 100 µM (inactive) | > 100 µM (inactive) | > 100 µM (inactive) | > 100 µM (inactive) | > 100 µM (inactive) | > 100 µM (inactive) | – | – |
| CSc1nc(C)cc(=O)n1C1OC(COC(C)=O)C(OC(C)=O)C(OC(C)=O)C1OC(C)=O (stereo not given) | > 100 µM (inactive) | > 100 µM (inactive) | > 100 µM (inactive) | > 100 µM (inactive) | > 100 µM (inactive) | > 100 µM (inactive) | > 100 µM (inactive) | > 100 µM (inactive) | > 100 µM (inactive) | > 100 µM (inactive) | > 100 µM (inactive) | > 100 µM (inactive) | – | > 100 µM (inactive) | > 100 µM (inactive) | > 100 µM (inactive) | – | – |
| COc1ccc(C[P+]2(c3ccccc3)CCCCC2)cc1.O=[N+]([O-])c1ccc(C[P+]2(c3ccccc3)CCCCC2)cc1.[O-][Cl+3]([O-])([O-])[O-].[O-][Cl+3]([O-])([O-])[O-] | > 100 µM (inactive) | > 100 µM (inactive) | 52.5 µM (inactive) | 20.6 µM (inactive) | 56.1 µM (inactive) | 66.2 µM (inactive) | – | > 100 µM (inactive) | 89.7 µM (inactive) | – | 39.2 µM (inactive) | > 100 µM (inactive) | – | – | > 100 µM (inactive) | 29.6 µM (inactive) | – | – |
| C=CCCC(O)c1cc(C)c(O)c(C)c1 (stereo not given) | > 100 µM (inactive) | > 100 µM (inactive) | > 100 µM (inactive) | > 100 µM (inactive) | > 100 µM (inactive) | > 100 µM (inactive) | > 100 µM (inactive) | – | > 100 µM (inactive) | – | > 100 µM (inactive) | > 100 µM (inactive) | – | > 100 µM (inactive) | > 100 µM (inactive) | > 100 µM (inactive) | – | – |
| CCOC(=O)Nn1c(C)nnc1CC#N | > 100 µM (inactive) | > 100 µM (inactive) | – | > 100 µM (inactive) | > 100 µM (inactive) | > 100 µM (inactive) | > 100 µM (inactive) | – | > 100 µM (inactive) | > 100 µM (inactive) | > 100 µM (inactive) | > 100 µM (inactive) | 58.9 µM (inactive) | > 100 µM (inactive) | – | > 100 µM (inactive) | > 100 µM (inactive) | > 100 µM (inactive) |
| C[C@]12CC=CC(=O)[C@@]1(C)CCC(=O)C2 | > 100 µM (inactive) | > 100 µM (inactive) | – | > 100 µM (inactive) | > 100 µM (inactive) | > 100 µM (inactive) | > 100 µM (inactive) | > 100 µM (inactive) | > 100 µM (inactive) | > 100 µM (inactive) | > 100 µM (inactive) | > 100 µM (inactive) | > 100 µM (inactive) | > 100 µM (inactive) | > 100 µM (inactive) | > 100 µM (inactive) | – | – |
| O=[N+]([O-])c1cc(Cl)ccc1S(=O)(=O)c1ccc(Cl)cc1[N+](=O)[O-] | 15.5 µM (inactive) | 16.1 µM (inactive) | 17 µM (inactive) | 19.9 µM (inactive) | 28.2 µM (inactive) | 16.7 µM (inactive) | 16.1 µM (inactive) | 17.9 µM (inactive) | 17.4 µM (inactive) | 4.19 µM (inactive) | 16.9 µM (inactive) | 17.1 µM (inactive) | 18.5 µM (inactive) | 12.4 µM (inactive) | 15.8 µM (inactive) | 13.5 µM (inactive) | – | – |
| COc1cc2c(cc1O)CC13CCC(=O)N1CCc1cc(OC)c(O)c-2c13 (stereo not given) | > 68.1 µM (inactive) | > 68.1 µM (inactive) | > 68.1 µM (inactive) | > 68.1 µM (inactive) | > 68.1 µM (inactive) | > 68.1 µM (inactive) | – | > 68.1 µM (inactive) | > 68.1 µM (inactive) | > 68.1 µM (inactive) | > 68.1 µM (inactive) | > 68.1 µM (inactive) | > 68.1 µM (inactive) | > 68.1 µM (inactive) | – | > 68.1 µM (inactive) | – | – |
| Clc1ccc2c(c1)C1C(CO2)C(c2ccccc2)=NN1c1ccccc1 (stereo not given) | 24.9 µM (inactive) | 35.2 µM (inactive) | 71.3 µM (inactive) | 17.3 µM (inactive) | 26.2 µM (inactive) | – | – | – | 34.5 µM (inactive) | – | – | 15 µM (inactive) | 18.6 µM (inactive) | – | > 100 µM (inactive) | 49.7 µM (inactive) | – | – |
| O=c1/c(=C/c2ccc3c(c2)OCO3)sc2nnc(-c3ccco3)n12 | > 100 µM (inactive) | > 100 µM (inactive) | > 100 µM (inactive) | > 100 µM (inactive) | > 100 µM (inactive) | > 100 µM (inactive) | > 100 µM (inactive) | > 100 µM (inactive) | > 100 µM (inactive) | – | > 100 µM (inactive) | > 100 µM (inactive) | – | > 100 µM (inactive) | > 100 µM (inactive) | 15.3 µM (inactive) | – | – |
| Cc1nnc(N/N=C(/C(=O)C(C#N)c2ccc(Cl)cc2)C(C#N)c2ccc(Cl)cc2)n1N (stereo not given) | 17.4 µM (inactive) | 15.9 µM (inactive) | 17.7 µM (inactive) | 22.5 µM (inactive) | 17.5 µM (inactive) | 20.7 µM (inactive) | 16.6 µM (inactive) | 18.1 µM (inactive) | 14.6 µM (inactive) | – | – | 17.7 µM (inactive) | > 100 µM (inactive) | 16.1 µM (inactive) | – | 17.4 µM (inactive) | – | – |
| C=C(C)C1CC2C(C)=C(OC(C)=O)C1n1c(=O)c3cc4ccccc4cc3c(=O)n12 (stereo not given) | > 95.5 µM (inactive) | > 82.8 µM (inactive) | > 100 µM (inactive) | 1.41 µM (inactive) | 46.2 µM (inactive) | > 100 µM (inactive) | 51.5 µM (inactive) | 73.3 µM (inactive) | > 100 µM (inactive) | 36 µM (inactive) | 31.8 µM (inactive) | > 83 µM (inactive) | 28.6 µM (inactive) | 34.7 µM (inactive) | > 100 µM (inactive) | > 100 µM (inactive) | – | – |
| O=C1C2Cc3ccccc3CN2C(=O)N1CCN1CCCC1 (stereo not given) | > 100 µM (inactive) | > 100 µM (inactive) | > 100 µM (inactive) | > 100 µM (inactive) | > 100 µM (inactive) | > 100 µM (inactive) | > 100 µM (inactive) | > 100 µM (inactive) | > 100 µM (inactive) | – | > 100 µM (inactive) | > 100 µM (inactive) | – | > 100 µM (inactive) | – | – | – | – |
| COc1ccc(/C=C/CO)cc1OC | > 100 µM (inactive) | > 100 µM (inactive) | > 100 µM (inactive) | – | > 100 µM (inactive) | – | – | – | > 100 µM (inactive) | > 100 µM (inactive) | > 100 µM (inactive) | > 100 µM (inactive) | 56.8 µM (inactive) | 49.9 µM (inactive) | > 100 µM (inactive) | > 100 µM (inactive) | – | – |
| Brc1ccc(-c2nnc(-c3nn(-c4ccccc4)c4nc5ccccc5nc34)o2)cc1 | > 100 µM (inactive) | > 100 µM (inactive) | > 100 µM (inactive) | 27.3 µM (inactive) | 27 µM (inactive) | > 100 µM (inactive) | > 100 µM (inactive) | 79.3 µM (inactive) | > 100 µM (inactive) | 27.8 µM (inactive) | > 100 µM (inactive) | > 100 µM (inactive) | > 100 µM (inactive) | > 100 µM (inactive) | > 100 µM (inactive) | 92 µM (inactive) | – | – |
| COc1cc(/C=C/C(=N\NC(=O)c2ccccc2)c2sc(Nc3ccc(Cl)c(Cl)c3)nc2C)ccc1O | 41.2 µM (inactive) | 26.8 µM (inactive) | 34 µM (inactive) | 16.1 µM (inactive) | 25.2 µM (inactive) | 31 µM (inactive) | 17 µM (inactive) | 33.4 µM (inactive) | 31.6 µM (inactive) | 22.3 µM (inactive) | 7.59 µM (inactive) | 28.8 µM (inactive) | < 0.01 µM (active) | 20.5 µM (inactive) | 70.3 µM (inactive) | 29.6 µM (inactive) | – | – |
| CCOC(=O)C1(C)CCC(C(=O)OC)C1=O (stereo not given) | > 100 µM (inactive) | > 100 µM (inactive) | 44.1 µM (inactive) | 53.1 µM (inactive) | 32.8 µM (inactive) | > 100 µM (inactive) | 17.1 µM (inactive) | > 100 µM (inactive) | > 100 µM (inactive) | 24.6 µM (inactive) | > 100 µM (inactive) | > 100 µM (inactive) | > 100 µM (inactive) | > 100 µM (inactive) | > 100 µM (inactive) | > 100 µM (inactive) | – | – |
